Experiments:
Assay in all cases: Kinase Inhibition Assay
[1] = target: Cyclin-dependent kinase/G2/mitotic-specific cyclin- 1 (Homo sapiens, UniProt P06493); details: pH 8; 30 °C
Experimental: (§1) The enzyme was assayed with a biotinylated peptide substrate and test compounds in the presence of 10 uM ATP/[gamma-33P]ATP in a streptavidin coated FlashPlate (Perkin-Elmer, Boston, MA). Inhibition of the enzymatic activity due to the compound was measured by observing a reduced amount of 33P-gamma-ATP incorporated into the immobilized peptide relative to untreated controls. Linear regression analysis of the percent of inhibition by the test compound was used to calculate IC50 values.

[2] = target: Cyclin-dependent kinase 4/G1/S-specific cyclin-D1 (Mus musculus, UniProt P30285)
Cyclin-dependent kinase 4/G1/S-specific cyclin-D1, sequence (P25322 whole entry): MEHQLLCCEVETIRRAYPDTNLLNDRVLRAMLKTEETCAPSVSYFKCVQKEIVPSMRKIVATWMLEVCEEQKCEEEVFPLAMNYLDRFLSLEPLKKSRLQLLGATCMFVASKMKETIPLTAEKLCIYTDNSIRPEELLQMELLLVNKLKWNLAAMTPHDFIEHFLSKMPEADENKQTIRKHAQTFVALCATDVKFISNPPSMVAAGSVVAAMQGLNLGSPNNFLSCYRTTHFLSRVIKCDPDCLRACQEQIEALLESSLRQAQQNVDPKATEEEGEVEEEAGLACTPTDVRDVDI
Cyclin-dependent kinase 4/G1/S-specific cyclin-D1, sequence (P30285 whole entry): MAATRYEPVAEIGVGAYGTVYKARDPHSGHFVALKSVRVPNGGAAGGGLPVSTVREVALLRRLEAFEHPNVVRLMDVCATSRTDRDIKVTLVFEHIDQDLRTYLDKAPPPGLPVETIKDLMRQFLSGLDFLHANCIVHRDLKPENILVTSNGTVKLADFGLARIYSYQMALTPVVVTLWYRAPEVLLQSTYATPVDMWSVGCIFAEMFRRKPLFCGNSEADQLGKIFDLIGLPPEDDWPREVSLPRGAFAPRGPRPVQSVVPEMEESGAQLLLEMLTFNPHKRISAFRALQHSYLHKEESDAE
Experimental: as §1

[3] = target: Vascular endothelial growth factor receptor 2 (Rattus norvegicus, UniProt O08775)
Vascular endothelial growth factor receptor 2, sequence (O08775 whole entry): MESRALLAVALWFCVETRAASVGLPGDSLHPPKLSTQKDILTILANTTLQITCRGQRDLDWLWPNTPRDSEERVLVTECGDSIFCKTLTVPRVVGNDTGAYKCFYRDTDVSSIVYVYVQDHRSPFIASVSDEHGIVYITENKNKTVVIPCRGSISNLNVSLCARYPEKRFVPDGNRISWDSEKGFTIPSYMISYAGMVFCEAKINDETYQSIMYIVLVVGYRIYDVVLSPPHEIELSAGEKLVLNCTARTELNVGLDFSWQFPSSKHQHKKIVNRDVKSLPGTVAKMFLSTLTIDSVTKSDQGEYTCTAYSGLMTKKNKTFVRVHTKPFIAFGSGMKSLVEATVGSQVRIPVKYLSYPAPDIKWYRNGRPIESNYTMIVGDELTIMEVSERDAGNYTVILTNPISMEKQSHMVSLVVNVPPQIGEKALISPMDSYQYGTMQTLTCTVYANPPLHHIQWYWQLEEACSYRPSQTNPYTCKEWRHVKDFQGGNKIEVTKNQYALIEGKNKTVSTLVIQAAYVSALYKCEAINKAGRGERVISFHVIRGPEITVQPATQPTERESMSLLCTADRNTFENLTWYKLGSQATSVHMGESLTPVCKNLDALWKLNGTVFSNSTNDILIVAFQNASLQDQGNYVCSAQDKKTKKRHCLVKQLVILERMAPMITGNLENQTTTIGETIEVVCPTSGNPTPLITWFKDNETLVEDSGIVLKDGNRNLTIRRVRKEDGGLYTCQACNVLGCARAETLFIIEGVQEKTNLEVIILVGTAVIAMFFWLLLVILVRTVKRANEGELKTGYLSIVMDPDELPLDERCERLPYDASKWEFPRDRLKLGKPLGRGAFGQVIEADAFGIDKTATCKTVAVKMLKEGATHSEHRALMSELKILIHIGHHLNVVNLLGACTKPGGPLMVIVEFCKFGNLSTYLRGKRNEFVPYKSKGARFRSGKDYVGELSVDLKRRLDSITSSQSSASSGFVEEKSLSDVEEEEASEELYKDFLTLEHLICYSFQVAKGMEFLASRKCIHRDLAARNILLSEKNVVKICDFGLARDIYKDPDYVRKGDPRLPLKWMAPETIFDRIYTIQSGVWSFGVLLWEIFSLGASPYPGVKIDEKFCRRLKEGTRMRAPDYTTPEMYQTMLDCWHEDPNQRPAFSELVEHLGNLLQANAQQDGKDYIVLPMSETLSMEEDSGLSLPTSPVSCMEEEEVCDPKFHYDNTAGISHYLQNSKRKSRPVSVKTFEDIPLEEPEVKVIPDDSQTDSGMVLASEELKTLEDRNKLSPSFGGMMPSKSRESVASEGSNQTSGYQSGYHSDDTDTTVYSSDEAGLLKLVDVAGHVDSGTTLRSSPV
Experimental: as §1

[4] = target: Cyclin-A2/Cyclin-dependent kinase 2 (Homo sapiens, UniProt P24941)
Experimental: as §1

Cyclin-dependent kinase/G2/mitotic-specific cyclin- 1, sequence (P06493 whole entry): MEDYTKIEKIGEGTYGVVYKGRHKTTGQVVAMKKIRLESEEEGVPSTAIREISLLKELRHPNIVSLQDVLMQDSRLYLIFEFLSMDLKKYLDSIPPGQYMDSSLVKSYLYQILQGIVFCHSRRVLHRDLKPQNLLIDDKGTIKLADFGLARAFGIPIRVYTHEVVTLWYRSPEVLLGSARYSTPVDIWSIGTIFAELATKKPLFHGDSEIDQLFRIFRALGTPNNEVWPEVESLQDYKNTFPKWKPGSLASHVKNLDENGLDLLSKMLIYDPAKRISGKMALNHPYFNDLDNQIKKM
Cyclin-dependent kinase/G2/mitotic-specific cyclin- 1, sequence (P14635 whole entry, further chain): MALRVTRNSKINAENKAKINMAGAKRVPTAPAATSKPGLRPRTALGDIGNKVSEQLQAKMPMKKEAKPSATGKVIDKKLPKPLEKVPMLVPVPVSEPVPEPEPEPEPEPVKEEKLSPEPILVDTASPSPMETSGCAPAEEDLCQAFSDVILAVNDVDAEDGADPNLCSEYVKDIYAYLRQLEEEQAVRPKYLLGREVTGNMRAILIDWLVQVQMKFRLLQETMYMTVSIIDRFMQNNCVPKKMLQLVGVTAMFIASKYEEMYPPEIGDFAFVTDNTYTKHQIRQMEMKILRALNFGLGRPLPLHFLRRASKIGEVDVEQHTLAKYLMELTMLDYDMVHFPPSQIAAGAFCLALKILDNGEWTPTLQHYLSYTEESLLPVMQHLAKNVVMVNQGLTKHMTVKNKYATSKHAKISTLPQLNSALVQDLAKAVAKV

Row | Structure (SMILES) | IC50 [1] | IC50 [2] | IC50 [3] | IC50 [4]
1 | Nc1nc(Nc2ccc(S(N)(=O)=O)cc2)nn1C(=O)c1c(F)ccc(F)c1F [4-[[5-Amino-1-(2,3,6-trifluorobenzoyl)-1H-1,2,4-triazol-3-yl]amino]-benzenesulfonamide] | 3.2 nM | – | – | –
2 | Cc1ccc(F)c(C(=O)n2nc(Nc3ccc(S(N)(=O)=O)cc3)nc2N)c1F [4-({5-amino-1-[(2,6-difluoro-3-methylphenyl)carbonyl]-1H-1,2,4-triazol-3-yl}amino)benzene-1-sulfonamide] | 8 nM | 190 nM | 510 nM | 0.3 nM

Reference: BindingDB's records for doi:10.1021/jm050267e (Johnson & Johnson Pharmaceutical, 2005)
